Tests used:
Type in all cases: cell-based
Microsporum canis = assay: Antifungal activity in vitro, resazurin growth inhibition: Microsporum canis (B68128)
How it was run: (§1)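 Dermatophytes incubated at 27° C. for one week or more with compound, max 64 μM, in RPMI-1640/MOPS pH 7.0±0.1, 10^3 cfu/well. Viability by resazurin-to-resorufin fluorescence, 550/590 nm.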

[1] = test system: Trichophyton mentagrophytes; assay: Antifungal activity in vitro, resazurin growth inhibition: Trichophyton mentagrophytes (B70554)
How it was run: as §1

Trichophyton rubrum = assay: Antifungal activity in vitro, resazurin growth inhibition: Trichophyton rubrum (B68183)
How it was run: as §1

Scedosporium apiospermum = assay: Antifungal activity in vitro, resazurin growth inhibition: Scedosporium apiospermum (IHEM3817)
How it was run: (§2)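 Fungi (10^3 cfu/well) grown in RPMI-1640 with L-glutamine, 2% glucose, MOPS pH 7.0, against 2- or 4-fold compound dilutions up to 64 μM. Dermatophytes incubated one week or more at 27° C. Growth inhibition read fluorimetrically (λex 550, λem 590 nm) after resazurin addition and further incubation.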

Scedosporium prolificans = assay: Antifungal activity in vitro, resazurin growth inhibition: Scedosporium prolificans (IHEM21157)
How it was run: as §2

Sporothrix schenkii = assay: Antifungal activity in vitro, resazurin growth inhibition: Sporothrix schenkii (B62482)
How it was run: as §2

Aspergillus fumigatus = assay: Antifungal activity in vitro, resazurin growth inhibition: Aspergillus fumigatus (B42928)
How it was run: as §2

Candida parapsilosis = assay: Antifungal activity in vitro, resazurin growth inhibition: Candida parapsilosis (B66126)
How it was run: as §2

Cryptococcus neoformans = assay: Antifungal activity in vitro, resazurin growth inhibition: Cryptococcus neoformans (B66663)
How it was run: as §2

Rhizopus oryzae = assay: Antifungal activity in vitro, resazurin growth inhibition: Rhizopus oryzae (IHEM5223)
How it was run: as §2

Rhizomucor miehei = assay: Antifungal activity in vitro, resazurin growth inhibition: Rhizomucor miehei (IHEM13391)
How it was run: as §2

Row | SMILES | Inf. B: Microsporum canis B68128, pIC50 (Microsporum canis) | Inf. G: Trichophyton mentagrophytes B70554, pIC50 [1] | Inf. C: Trichophyton rubrum B68183, pIC50 (Trichophyton rubrum) | Inf. H: Scedosporium apiospermum IHEM3817, pIC50 (Scedosporium apiospermum) | Inf. I: Scedosporium prolificans IHEM21157, pIC50 (Scedosporium prolificans) | Inf. A: Sporothrix schenkii B62482, pIC50 (Sporothrix schenkii) | Inf. E: Aspergillus fumigatus B42928, pIC50 (Aspergillus fumigatus) | Inf. D: Candida parapsilosis B66126, pIC50 (Candida parapsilosis) | Inf. F: Cryptococcus neoformans B66663, pIC50 (Cryptococcus neoformans) | Inf. J: Rhizopus oryzae IHEM5223, pIC50 (Rhizopus oryzae) | Inf. K: Rhizomucor miehei IHEM13391, pIC50 (Rhizomucor miehei) | further results
1 | Cc1cccc2c1CN=C(c1cc3cc(Cl)ccc3o1)c1cccn1-2 [Compound 122] | 6.90 | 5.55 | 6.86 | <4.19 | 4.62 | 5.42 | 5.38 | <4.19 | 4.69 | <4.19 | <4.19 | 
2 | Cc1ccc2oc(C3=NCc4c(Cl)cccc4-n4cccc43)cc2c1 [Compound 134] | 6.68 | 6.66 | 7.16 | <4.19 | 6.48 | 4.50 | 5.66 | 4.54 | <4.19 | <4.19 | <4.19 | 
3 | Clc1cccc2c1CN=C(c1ccc3sccc3c1)c1cccn1-2 [Compound 9] |  |  |  |  |  |  |  |  |  |  |  | IC50 (Microsporum canis; read-out: Inf. B: Microsporum canis B68128, pIC50 (converted)): 107 nM; IC50 ([1]; read-out: Inf. G: Trichophyton mentagrophytes B70554, pIC50 (converted)): 97.7 nM; IC50 (Trichophyton rubrum; read-out: Inf. C: Trichophyton rubrum B68183, pIC50 (converted)): 36.3 nM; IC50 (Scedosporium apiospermum; read-out: Inf. H: Scedosporium apiospermum IHEM3817, pIC50 (converted)): 550 nM; IC50 (Scedosporium prolificans; Lomentospora prolificans, read-out: Inf. I: Scedosporium prolificans IHEM21157, pIC50 (converted)): 39.8 nM; IC50 (Sporothrix schenkii; read-out: Inf. A: Sporothrix schenkii B62482, pIC50 (converted)): 1660 nM; IC50 (Aspergillus fumigatus; read-out: Inf. E: Aspergillus fumigatus B42928, pIC50 (converted)): 12.9 nM; IC50 (Candida parapsilosis; Lodderomyces parapsilosis, read-out: Inf. D: Candida parapsilosis B66126, pIC50 (converted)): 603 nM; IC50 (Cryptococcus neoformans; read-out: Inf. F: Cryptococcus neoformans B66663, pIC50 (converted)): 646 nM; IC50 (Rhizopus oryzae; Rhizopus arrhizus, read-out: Inf. J: Rhizopus oryzae IHEM5223, pIC50 (converted)): > 64600 nM; IC50 (Rhizomucor miehei; read-out: Inf. K: Rhizomucor miehei IHEM13391, pIC50 (converted)): 2340 nM
4 | Clc1cc(Cl)c2c(c1)-n1cccc1C(c1ccc3ncsc3c1)=NC2 [Compound 187] | 5.68 | 6.22 | 6.77 | 5.79 | 6.92 | 5.09 | 5.98 | 4.50 | 5.46 | <4.19 | <4.19 | 
5 | Fc1cc(F)c2oc(C3=NCc4c(Cl)cccc4-n4cccc43)cc2c1 [Compound 128] | 6.02 | 6.30 | 6.87 | <4.19 | 7.10 | <4.19 | 5.99 | <4.19 | 4.69 | <4.19 | <4.19 | 
6 | Cn1nnc2ccc(C3=NCc4c(Cl)cc(Cl)cc4-n4cccc43)cc21 [Compound 111] | 5.69 | 5.31 | 6.09 | 5.77 | 6.77 | 4.41 | 5.76 | <4.19 | 5.74 | <4.19 | 4.53 | 
7 | CC(F)(F)c1ccc(C2=NCc3c(Cl)cc(Cl)cc3-n3cccc32)cn1 [Compound 84] | 6.24 | 5.88 | 6.26 | 5.31 | <4.19 | 5.65 | 6.24 | 5.44 | 5.88 | <4.19 | <4.19 | 
8 | Cc1cccc2c1CN=C(c1cc3ccccc3o1)c1cccn1-2 [Compound 116] | 7.39 | 6.83 | 7.52 | 6.22 | 6.46 | 5.84 | 6.26 | 4.70 | 5.65 | <4.19 | 4.81 | 
9 | Cc1ccc2cc(C3=NCc4c(C)cccc4-n4cccc43)oc2c1 [Compound 140] | 6.44 | 6.11 | 7.50 | 5.35 | 6.36 | 6.23 | 5.05 | 4.34 | 4.60 | <4.19 | 4.68 | 
10 | CC(F)(F)c1ccc(C2=NCc3c(Cl)cccc3-n3cccc32)cn1 [Compound 82] | 6.37 | 6.24 | 6.85 | 6.01 | 6.24 | <4.19 | 6.28 | 5.285 | <4.19 | <4.19 | <4.19 | 
11 | CC(=O)c1ccc(C2=NCc3c(Cl)cccc3-n3cccc32)cn1 [Compound 92] | <4.19 | <4.19 | 6.09 | <4.19 | <4.19 | <4.19 | <4.19 | <4.19 | <4.19 | <4.19 | <4.19 | 
12 | Clc1cc(Cl)c2c(c1)-n1cccc1C(c1cc3ccccc3s1)=NC2 [Compound 168] | 4.96 | 6.40 | 6.18 | <4.19 | 6.48 | 6.22 | 6.73 | <4.19 | 6.41 | <4.19 | <4.19 | 
13 | Cn1nnc2ccc(C3=NCc4c(Cl)cccc4-n4cccc43)cc21 [Compound 110] | 5.30 | 5.60 | 5.96 | 4.77 | 5.89 | 4.44 | 5.50 | 4.58 | 5.09 | <4.49 | <4.49 | 
14 | Cn1ccc2cc(C3=NCc4c(Cl)cc(Cl)cc4-n4cccc43)ccc21 [Compound 107] | 6.31 | 5.44 | 5.92 | 4.90 | 5.48 | 5.16 | 5.06 | 4.87 | 5.53 | <4.19 | <4.19 | 
15 | Clc1cccc2c1CN=C(c1cnc3c(c1)CCC3)c1cccn1-2 [Compound 105] | 6.67 | 6.91 | 6.87 | 7.52 | 8.00 | 5.70 | 5.76 | 4.91 | 5.30 | <4.19 | 4.23 | 
